For assay [1], the system named is human sarcoma cell line G-292 clone A141B1. Briefly: Cell proliferation measurement in vitro (Cell Titer Glo, 72 h). The assay is classed as cell-based. The following applies: G292, G-292 clone A141B1, 72 h, read-out: Anti-proliferation Target IC50. As to the method: The antiproliferative activity of the compounds of the general formula (I) was examined in vitro in the human sarcoma cell line G-292 clone A141B1 (from ATCC). For this purpose, the appropriate number of cells (1000) were plated in 384-well plates with appropriate growth medium McCoy's 5a Medium Modified, FCS 10% final (Biochrom; #S 0415); and incubated at 37° C. overnight. After 24 h, cells on one plate (0 h plate) were treated with 30 μl/cavity of CTG solution (Promega Cell Titer Glo (catalogue #G755B and G756B)) and incubated at room temperature for 10 min, and luminescence was measured by means of a VICTOR V (Perkin Elmer), in order to determine cell viability on commencement of treatment. The cells on the test plate were treated with a set of compounds of the general formula (I) as indicated below and incubated at 37° C. for 72 h. The compounds were added to the cells by means of an HP D300 digital dispenser in a 10-step 2.5-fold dilution series generally starting at a maximum final drug concentration of 100 nM. As control, the cells were treated with vehicle (DMSO at 0.3% final concentration). After 72 h, the cells were treated with 30 μl/cavity of CTG solution (Promega Cell Titer Glo (catalogue #G755B and G756B)) and incubated at room temperature for 10 min, and luminescence was measured by means of a VICTOR V (Perkin Elmer), in order to determine cell viability at the end of treatment. The percentage effect on cell growth and the IC50 derived therefrom were determined for each test substance using the values from the 0 h plate (=maximum inhibition) and the DMSO control (=minimum inhibition). The IC50 values were calculated using a 4-parameter fit.

Assay [2] concerns sarcoma patient derived xenograft model SA3831 (Osteosarcoma). Kind of assay: In vivo xenotransplantation model SA3831. Set-up: species or system mice. The text has this:
(§1) The anti-tumor activities of (6S)-5-[4′-fluoro-2-(trifluoromethyl)biphenyl-4-yl]-6-methyl-3,6-dihydro-2H-1,3,4-oxadiazin-2-one was examined in murine xenotransplantation models of human cancer. For this purpose, mice were implanted subcutaneously with tumor pieces. At a mean tumor size of 20-40 mm^2 animals were randomized into treatment and control groups (at least n=10 animals/group) and treatment started with vehicle only or respective compound (formulation: 90% PEG400/10% Ethanol; application route: per os (“p.o.”), orally). The oral application volume was 10 ml/kg. In the case of twice daily treatments, the time interval between two applications per day was 6-7 h. The tumor size and the body weight were determined at least weekly. The tumor area was detected by means of an electronic caliper [length (mm)×width (mm)]. The experiment was ended when the study reached the pre-determined ethical endpoint based on German and European animal welfare regulations. In vivo anti-tumor efficacy is presented as T/C ratio at study end (Treatment/Control; mean tumor weight of treatment group/mean tumor weight of control group) in Table 2. A compound having a T/C below 0.5 is defined as active (i.e., effective). Statistical analysis was assessed using SigmaStat software. […]

In assay [3] the test system is sarcoma patient derived xenograft model SA10245 (Fibrous histiocytoma). Briefly: In vivo xenotransplantation model SA10245. More on the design: species or system mice.
Description: as §1

In assay [4] the test system is sarcoma patient derived xenograft model SA16044 (Soft Tissue Sarcoma). Briefly: In vivo xenotransplantation model SA16044. Set-up: species or system mice. To be noted: for T/C: SA16044 Soft Tissue Sarcoma PDX subcutaneous in mice, 10 mg/kg 2QD p.o., at study end. The text has this: The anti-tumor activities of (6S)-5-[4′-fluoro-2-(trifluoromethyl)biphenyl-4-yl]-6-methyl-3,6-dihydro-2H-1,3,4-oxadiazin-2-one was examined in murine xenotransplantation models of human cancer. For this purpose, mice were implanted subcutaneously with tumor pieces. At a mean tumor size of 20-40 mm^2 animals were randomized into treatment and control groups (at least n=10 animals/group) and treatment started with vehicle only or respective compound (formulation: 90% PEG400/10% Ethanol; application route: per os (“p.o.”), orally). The oral application volume was 10 ml/kg. In the case of twice daily treatments, the time interval between two applications per day was 6-7 h. The tumor size and the body weight were determined at least weekly. The tumor area was detected by means of an electronic caliper [length (mm)×width (mm)]. The experiment was ended when the study reached the pre-determined ethical endpoint based on German and European animal welfare regulations. In vivo anti-tumor efficacy is presented as T/C ratio at study end (Treatment/Control; mean tumor weight of treatment group/mean tumor weight of control group) in Table 2. A compound having a T/C below 0.5 is defined as active (i.e., effective). Statistical analysis was assessed using SigmaStat software. A one-way analysis of variance was performed and differences to the control were compared by a pair-wise comparison procedure (Dunn's method).
Patient-derived xenograft models established by direct transplantation of fresh human tumors are considered to more closely resemble the heterogeneity of the actual human tumor compared to xenograft models established from cell lines that have been cultured in vitro for decades. The anti-tumor activity of (6S)-5-[4′-fluoro-2-(trifluoromethyl)biphenyl-4-yl]-6-methyl-3,6-dihydro-2H-1,3,4-oxadiazin-2-one was assessed in patient-derived xenograft models of sarcoma, a tumor type consisting of many subtypes and a high medical need due to absence of approved targeted therapies. The tumor models are originating from CrownBio.

Assay [5] relates to sarcoma patient derived xenograft model SA4058 (Synovial Sarcoma). Kind of assay: In vivo xenotransplantation model SA4058. Set-up: species or system mice.
Description: as §1

Assay [6] has as its system sarcoma patient derived xenograft model SA10199 (recurrent malignant solitary fibrous tumor). Kind of assay: In vivo xenotransplantation model SA10199. More on the design: species or system mice.
Description: as §1

These results are taken from patent publication US20230405015A1, “SUBSTITUTED 3,6-DIHYDRO-2H-1,3,4-OXADIAZIN-2-ONES FOR THE TREATMENT OF SARCOMA” (Bayer Aktiengesellschaft, priority 2021, published 2023).

“And” between values parts separate entries of the source, which are not always exact repeats. Equal values may be shown once. “Also recorded” adds a separate entry of the source.

On to `Cc1cc(C2=NNC(=O)OC2)ccc1-c1ccc(F)cc1` [Example 7, 5-(4'-Fluoro-2-methylbiphenyl-4-yl)-3,6-dihydro-2H-1,3,4-oxadiazin-2-one], for which, in assay [1], the IC50 amounted to 49.6 nM.

Take `Cc1ccc(C2=NNC(=O)OC2)cc1C(F)(F)F` [Example 139, 5-[4-Methyl-3-(trifluoromethyl)phenyl]-3,6-dihydro-2H-1,3,4-oxadiazin-2-one]: the IC50 in assay [1] turned out to be 193 nM.

As to `CC(C)(C)CCc1ccc(C2=NNC(=O)OC2)cc1C(F)(F)F` [Example 269, 5-[4-(3,3-Dimethylbutyl)-3-(trifluoromethyl)phenyl]-3,6-dihydro-2H-1,3,4-oxadiazin-2-one], in assay [1], the IC50 amounted to 85.7 nM.

For the molecule `C[C@@H]1OC(=O)NN=C1c1ccc(-c2ccc(F)cc2)c(C(F)(F)F)c1` [Example 135, (6S)-5-[4'-Fluoro-2-(trifluoromethyl)biphenyl-4-yl]-6-methyl-3,6-dihydro-2H-1,3,4-oxadiazin-2-one], the IC50 in assay [1] worked out at 17.6 nM. For the same molecule, the T/C in assay [2] (SA3831 Osteosarcoma PDX subcutaneous in mice, 10 mg/kg 2QD p.o., at study end) was 0.01; in assay [3] (SA10245 Fibrous histiocytoma PDX subcutaneous in mice, 10 mg/kg 2QD p.o., at study end), 0.73; in assay [4] (listed as (6S)-5-[4'-fluoro-2-(trifluoromethyl)biphenyl-4-yl]-6-methyl-3,6-dihydro-2H-1,3, 10 mg/kg) it was 0.33; in assay [4] (listed as (6S)-5-[4′-fluoro-2-(trifluoromethyl)biphenyl-4-yl]-6-methyl-3,6-dihydro-2H-1,3, 10 mg/kg), 0.35 and 0.33; in assay [5] (SA4058 Synovial Sarcoma PDX subcutaneous in mice, 10 mg/kg 2QD p.o., at study end), 0.12; in assay [6] (SA10199 Sarcoma (recurrent malignant solitary fibrous tumor) PDX subcutaneous in mice, 10 mg/kg 2QD p.o., at study end, listed as (6S)-5-[4'-fluoro-2-(trifluoromethyl)biphenyl-4-yl]-6-methyl-3,6-dihydro-2H-1,3, 10 mg/kg), 0.34. Also, the “anti-tumor efficacy (in words)” value in assay [2] (SA3831 PDX in mice, versus vehicle, unpaired t-test) is on record as “strong tumor-growth inhibition; also recorded: significant anti-tumor efficacy”; in assay [3] (SA10245 PDX in mice, versus vehicle, unpaired t-test), “non-significant signs of anti-tumor efficacy; also recorded: least sensitive model”; in assay [4] (SA16044 PDX in mice, versus vehicle, unpaired t-test) it was “significant anti-tumor efficacy; also recorded: moderate tumor-growth inhibition”; in assay [5] (SA4058 PDX in mice, versus vehicle, unpaired t-test), “significant anti-tumor efficacy; also recorded: strong tumor-growth inhibition”; in assay [6] (SA10199 PDX in mice, versus vehicle, unpaired t-test), “significant anti-tumor efficacy; also recorded: moderate tumor-growth inhibition”.

Take `O=C1NN=C(c2ccc(N3CCC(F)(F)CC3)c(F)c2)CO1` [Example 1, 5-[4-(4,4-Difluoropiperidin-1-yl)-3-fluorophenyl]-3,6-dihydro-2H-1,3,4-oxadiazin-2-one]: the IC50 in assay [1] came to 26 nM.

With `O=C1NN=C(c2ccc(N3CCOCC3)c(F)c2)CO1` [Example 4, 5-[3-Fluoro-4-(morpholin-4-yl)phenyl]-3,6-dihydro-2H-1,3,4-oxadiazin-2-one], the IC50 in assay [1] turned out to be 103 nM.

Consider `C[C@@H]1OC(=O)NN=C1c1ccc(-n2ccc(C(F)(F)F)n2)c(C(F)(F)F)c1` [Example 265, (6S)-6-Methyl-5-{3-(trifluoromethyl)-4-[3-(trifluoromethyl)-1H-pyrazol-1-yl]phenyl}-3,6-dihydro-2H-1,3,4-oxadiazin-2-one], for which the IC50 in assay [1] is 37.2 nM.

Consider `O=C1NN=C(c2ccc(-c3ccc(C(F)F)cc3)c(F)c2)CO1` [Example 92, 5-[4'-(Difluoromethyl)-2-fluoro[1,1'-biphenyl]-4-yl]-3,6-dihydro-2H-1,3,4-oxadiazin-2-one], for which, in assay [1], the IC50 came out at 35.1 nM.

Take `C[C@@H]1OC(=O)NN=C1c1ccc(N2CCN(C)CC2)c(C(F)(F)F)c1` [Example 277, (6S)-6-Methyl-5-[4-(4-methylpiperazin-1-yl)-3-(trifluoromethyl)phenyl]-3,6-dihydro-2H-1,3,4-oxadiazin-2-one]: the IC50 in assay [1] was found to be 604 nM.

For `Cc1cc(C2=NNC(=O)OC2)ccc1-c1ccc(F)c(F)c1` [Example 8, 5-(3',4'-Difluoro-2-methylbiphenyl-4-yl)-3,6-dihydro-2H-1,3,4-oxadiazin-2-one], the IC50 in assay [1] amounted to 96.8 nM.

On to `O=C1NN=C(c2ccc(-c3cnn(C(F)F)c3)c(C(F)(F)F)c2)CO1` [Example 146, 5-{4-[1-(Difluoromethyl)-1H-pyrazol-4-yl]-3-(trifluoromethyl)phenyl}-3,6-dihydro-2H-1,3,4-oxadiazin-2-one], for which the IC50 in assay [1] was determined as 12.5 nM.

As to `COCCCc1ccc(C2=NNC(=O)OC2)cc1C(F)(F)F` [Example 267, 5-[4-(3-Methoxypropyl)-3-(trifluoromethyl)phenyl]-3,6-dihydro-2H-1,3,4-oxadiazin-2-one], in assay [1], the IC50 was found to be 16.8 nM.

As to `O=C1NN=C(c2ccc(-c3ccc(F)cc3)c(C(F)(F)F)c2)CO1` [Example 3, 5-[4'-Fluoro-2-(trifluoromethyl)biphenyl-4-yl]-3,6-dihydro-2H-1,3,4-oxadiazin-2-one], the IC50 in assay [1] worked out at 38.2 nM.
